System: SH-SY5Y cells
Test: Neuroprotection against rotenone/oligomycin A, pre- and co-incubation model, MTT
Type: cell-based
Settings: Homo sapiens, compound 1 μM pre-incubation 24 h and co-incubation 24 h with Rot/Olig (30/10 μM); for inhibition at 1 µM: read-out: % Protection; for viability at 1 µM: read-out: % Survival
Procedure: SH-SY5Y cells [ECACC 94030304], in 5 to 16 passage after defreezing were maintained in Eagle media modified by Dulbecco (DMEM) containing 15 non-essential amino acids and supplemented with 10% fetal bovine serum, 1 mM glutamine, 50 units/mL penicillin/streptomycin (obtained from GIBCO, Madrid, Spain). Cells were seeded in flasks containing supplemented media and were maintained in an incubator at 37° C. and 5% CO2. 1:4 passes were performed twice per week. For the experiments, cells were seeded in 24 well-plates at a density of 2×10^5 cells/well, or in 96 well-plates at a density of 8×10^4 cells/well. For cytotoxicity experiments, cells were treated with the compounds before confluence with DMEM media supplemented with fetal bovine serum 1%.
In order to assess cellular viability, we measured the metabolic reduction of 3-(4,5-Dimethylthiazol-2-yl)-2,5 diphenyltetrazolium bromide (MTT). MTT is an indirect assay to measure cellular viability. It is a colorimetric method based on the reduction of 3-(4,5-Dimethylthiazol-2-yl)-2,5 diphenyltetrazolium. This process is performed by the mitochondrial enzyme succinate-dehydrogenase present in metabolic active cells. Thus, the water-soluble yellow MTT (tetrazolium salt) is transformed into a insoluble purple compound (formazan). Quantity of living cells is directly proportional to the quantity of formazan (Mosmann, 1983, J Immunol Methods, 65: 55-63). […] Therefore, with this assay we can measure cellular surviving and proliferation and also, we can determine the cytotoxicity of potential neuroprotective compounds. In order to assess cellular viability in SH-SY5Y cell line, we added 30 μl/well of MTT (5 mg/mL) and after 2 h, medium was carefully removed to avoid losing the formazan and was diluted in 300 μL of DMSO. Afterwards, samples were transferred to a 96 well-plate and the absorbance was measured at 570 nm using a absorbance/fluorescence reader FluoStar optima®. Every MTT assay was performed in triplicates. Absorbance values obtained with the toxic alone were subtracted to the absorbance values obtained in basal conditions (without treatment). That result was considered as the 100% of cell death and the values obtained with the compounds in the presence of the toxic stimulus were normalized as percentages of that value. For determining the surviving percentage, those percentages of cell death were subtracted to 100.
Neuroprotection elicited by the compounds of the invention 1-16: The activation of Nrf2-ARE pathway by different compounds exerts neuroprotective effects against toxic models based on oxidative stress via the expression of cytoprotective genes. […] We evaluated the neuroprotective potential of the compounds using the human neuroblastoma cell line using the following cytotoxicity models: 1) oxidative stress induced by rotenone+oligomycin, both blockers of the electron transport chain as previously described (Halliwell, 1992, J Neurochem, 59: 1609-23, Newhouse y col., 2004, Toxicol Sci, 79: 137-46), and 2) cytotoxicity induced by the electrophilic compound Menadione. This compound produces oxidative stress after being metabolized by microsomal enzymes in the cell which produces hydroxyl radical and oxygen reactive species. As a consequence, there is a depolarization of mitochondrial membrane generating a release of apoptotic factors such as cytochrome c, and activating the caspase cascade (Loor y col., 2010, Free Radic Biol Med, 49: 1925-36, Chuang y col., 2002, Cancer Res, 62: 6246-54). Caspase 3 activation can produce the lysis of proteins and induce DNA fragmentation, leading to cell death (Gerasimenko y col., 2002, J Cell Sci, 115: 485-97).
In this model, a 24 h pre-incubation period was performed in presence of the compounds synthesized at a concentration of 1 μM. Thereafter, a 24 h co-incubation period was added, in presence of the compounds with rotenone/oligomycin A (30 μM/10 μM) mixture. After 24 h, cell viability was assessed by the MTT reduction method. […]

CC(=O)NCCc1c[nH]c2ccc(OC(=O)/C=C/c3ccc(F)cc3)cc12 [Compound 9, 3-(2-acetamidoethyl)-1H-indol-5-yl (E)-3-(4-fluorophenyl)acrylate]
inhibition at 1 µM: 40.5% | viability at 1 µM: 69.6 ± 2.63%

COc1ccc(/C=C/C(=O)Oc2ccc3[nH]cc(CCNC(C)=O)c3c2)cc1 [Compound 6, 3-(2-acetamidoethyl)-1H-indol-5-yl (E)-3-(4-methoxyphenyl)acrylate]
inhibition at 1 µM: 44.1% | viability at 1 µM: 71.6 ± 3.94%

COc1cc(/C=C/C(=O)Oc2ccc3[nH]cc(CCNC(C)=O)c3c2)ccc1O [Compound 8, 3-(2-acetamidoethyl)-1H-indol-5-yl (E)-3-(4-hydroxy-3-methoxyphenyl)acrylate]
inhibition at 1 µM: 41.7% | viability at 1 µM: 81.1 ± 1.71%

COc1ccccc1/C=C/C(=O)Oc1ccc2[nH]cc(CCNC(C)=O)c2c1 [Compound 4, 3-(2-acetamidoethyl)-1H-indol-5-yl (E)-3-(2-methoxyphenyl)acrylate]
inhibition at 1 µM: 28.1% | viability at 1 µM: 69.9 ± 4.17%

CC(=O)NCCc1c[nH]c2ccc(OC(=O)/C=C/c3ccc(Br)cc3)cc12 [Compound 10, 3-(2-acetamidoethyl)-1H-indol-5-yl (E)-3-(4-bromophenyl)acrylate]
inhibition at 1 µM: 40.8% | viability at 1 µM: 70.4 ± 2.21%

CC(=O)NCCc1c[nH]c2ccc(OC(=O)/C=C/c3ccccc3C(F)(F)F)cc12 [Compound 13, 3-(2-acetamidoethyl)-1H-indol-5-yl (E)-3-(2-(trifluoromethyl)phenyl)acrylate]
inhibition at 1 µM: 50.2% | viability at 1 µM: 73.8 ± 4.55%

CC(=O)NCCc1c[nH]c2ccc(OC(=O)/C=C/c3ccc(O)cc3)cc12 [Compound 7, 3-(2-acetamidoethyl)-1H-indol-5-yl (E)-3-(4-hydroxyphenyl)acrylate]
inhibition at 1 µM: 39.8% | viability at 1 µM: 79.7 ± 2.37%

CC(=O)NCCc1c[nH]c2ccc(OC(=O)/C=C/c3ccccc3)cc12 [Compound 2, 3-(2-acetamidoethyl)-1H-indol-5-yl cinnamate]
inhibition at 1 µM: 48% | viability at 1 µM: 73.7 ± 4.65%

CC(=O)NCCc1c[nH]c2ccc(OC(=O)/C=C/c3ccc(C)cc3)cc12 [Compound 3, 3-(2-acetamidoethyl)-1H-indol-5-yl (E)-3-(4-methylphenyl)acrylate]
inhibition at 1 µM: 55.1% | viability at 1 µM: 76.4 ± 3.89%

CC(=O)NCCc1c[nH]c2ccc(OC(=O)/C=C/c3ccc(Cl)cc3)cc12 [Compound 11, 3-(2-acetamidoethyl)-1H-indol-5-yl (E)-3-(4-chlorophenyl)acrylate]
inhibition at 1 µM: 28.4% | viability at 1 µM: 70.2 ± 3.7%

CC(=O)NCCc1c[nH]c2ccc(OC(=O)/C=C/c3ccc(Cl)c(Cl)c3)cc12 [Compound 12, 3-(2-acetamidoethyl)-1H-indol-5-yl (E)-3-(3,4-dichlorophenyl)acrylate]
inhibition at 1 µM: 27.8% | viability at 1 µM: 69.9 ± 3.47%

COc1ccc2[nH]cc(CCNC(C)=O)c2c1 [Melatonin, reference compound]
inhibition at 1 µM: 31.1% | viability at 1 µM: 68.3 ± 4.27%

CC(=O)NCCc1c[nH]c2ccc(OC(=O)/C=C/c3cccc(C(F)(F)F)c3)cc12 [Compound 14, 3-(2-acetamidoethyl)-1H-indol-5-yl (E)-3-(3-(trifluoromethyl)phenyl)acrylate]
inhibition at 1 µM: 45.9% | viability at 1 µM: 72.6 ± 3.75%

CC(=O)NCCc1c[nH]c2ccc(OC(=O)/C=C/c3ccc(C(F)(F)F)cc3)cc12 [Compound 15, 3-(2-acetamidoethyl)-1H-indol-5-yl (E)-3-(4-(trifluoromethyl)phenyl)acrylate]
inhibition at 1 µM: 47.6% | viability at 1 µM: 73 ± 2.99%

COc1cccc(/C=C/C(=O)Oc2ccc3[nH]cc(CCNC(C)=O)c3c2)c1 [Compound 5, 3-(2-acetamidoethyl)-1H-indol-5-yl (E)-3-(3-methoxyphenyl)acrylate]
inhibition at 1 µM: 57.6% | viability at 1 µM: 78.7 ± 4.37%

CC(=O)NCCc1c[nH]c2ccc(OC(=O)/C=C/c3ccc([N+](=O)[O-])cc3)cc12 [Compound 16, 3-(2-acetamidoethyl)-1H-indol-5-yl (E)-3-(4-nitrophenyl)acrylate]
inhibition at 1 µM: 29.5% | viability at 1 µM: 76.5 ± 2.18%

C/C=C/C(=O)Oc1ccc2[nH]cc(CCNC(C)=O)c2c1 [Compound 1, 3-(2-acetamidoethyl)-1H-indol-5-yl (E)-2-butenoate]
inhibition at 1 µM: 28.8% | viability at 1 µM: 77 ± 1.3%

From US20180105492A1, “COMPOUNDS DERIVED FROM 3-ALKYLAMINE-1H-INDOLYL ACRYLATE AND THEIR USE IN THE TREATMENT OF NEURODEGENERATIVE DISEASES” (FUNDACION PARA LA INVESTIGACION BIOMEDICA DEL HOSPITAL …, priority 2014, published 2018)
